Assay results reported in US5283183A, “Cyclic FR-900520 microbial biotransformation agent” (Merck & Co., Inc., priority 1992, dated 1994).
Where “and” joins values, the source holds several entries; their conditions need not be identical. Identical values can stand only once. Entries after “also recorded” stand apart in the source; their conditions may differ. Like-named read-outs stand apart in the source and are kept apart here.

How the values were obtained:
[1] = test system: mouse T lymphocytes; experiment: T-cell proliferation assay (ionomycin + PMA induced, tritiated thymidine uptake); format: cell-based, mouse (C57B1/6)
Experimental: The principle of this assay is to measure the proliferation of mouse T lymphocytes stimulated with the combination of ionomycin plus PMA.
Cells were pelleted by centrifugation at 1500 rpm for 8 minutes. Contaminating red cells were removed by treating the pellet with ammonium chloride lysing buffer (GIBCO) for 2 minutes at 4° C. Cold medium was added and cells were again centrifuged at 1500 rpm for 8 minutes. T lymphocytes were then isolated by separation of the cell suspension on nylon wool columns as follows: Nylon wool columns were prepared by packing approximately 4 grams of washed and dried nylon wool into 20 ml plastic syringes. The columns were sterilized by autoclaving at 250° F. for 30 minutes. Nylon wool columns were wetted with warm (37° C.) culture medium and rinsed with the same medium. Washed spleen cells resuspended in warm medium were slowly applied to the nylon wool. The columns were then incubated in an upright position at 37° C. for 1 hour. Non-adherent T lymphocytes were eluted from the columns with warm culture medium and the cell suspensions were spun as above.
The cell suspension was immediately distributed into 96 well flat-bottom microculture plates (Costar) at 200 μl/well. […] The proliferation of T lymphocytes was assessed by measurement of tritiated thymidine incorporation. After 44 hours of culturing, the cells were pulse-labelled with 2 μCi/well of tritiated thymidine (NEN, Cambridge, Mass.). After another 4 hours of incubation, cultures were harvested on glass fiber filters using a multiple sample harvester. Radioactivity of filter discs corresponding to individual wells was measured by standard liquid scintillation counting methods (Betacounter). Mean counts per minute of replicate wells were calculated and the results expressed as percent inhibition of tritiated thymidine uptake (proliferation) as follows: [formula]

[2] = reputed; EPO Publication No. 0184162; cited from earlier work

Q: For `CC[C@@H]1C=C2COC1(O)C[C@H](O)[C@@H](C)[C@@H](/C(C)=C/[C@@H]1CC[C@@H](O)[C@H](OC)C1)OC(=O)[C@@H]1CCCCN1C(=O)C(=O)[C@]1(O)O[C@H]([C@@H](OC)C[C@@H](C)C2)[C@@H](OC)C[C@H]1C` [Compound I], which IC50 ([1]; 5 additional experiments, individual values) is on record?
A: The IC50 was 1.92 ng/mL and 5.20 ng/mL and 4.80 ng/mL and 4.50 ng/mL.

Q: And the “Inhibition of T-cell proliferation after addition of IL2” value ([1]; 50 units/ml recombinant IL2 at the initiation of culture)?
A: The value was “reversed”.

Q: And the IC50 ([1]; Mus musculus, T-lymphocyte, based on 5 additional experiments, read-out: IC50, general range)?
A: Its IC50 is 1.57 to 5.2 ng/mL.

Q: What about the IC50 ([1]; Mus musculus, T-lymphocyte, mean of all 6 runs, ± SEM, read-out: mean IC50) of the same compound?
A: Its IC50 is 4.36 ± 1.7 nM.

Q: And the IC50 ([1]; Mus musculus, T-lymphocyte, run of the Table, read-out: IC50)?
A: The IC50 was 3.17 ng/mL.

Q: And the inhibition at 0.0008 µM ([1]; Mus musculus, T-lymphocyte, Compound I 0.8 nM, read-out: Percent of Inhibition)?
A: The inhibition at 0.0008 µM was 16%.

Q: And the inhibition at 0.0016 µM ([1]; Mus musculus, T-lymphocyte, Compound I 1.6 nM, read-out: Percent of Inhibition)?
A: The inhibition at 0.0016 µM was 19%.

Q: What about the inhibition at 0.0031 µM ([1]; Mus musculus, T-lymphocyte, Compound I 3.1 nM, read-out: Percent of Inhibition) of the same compound?
A: The inhibition at 0.0031 µM was 55%.

Q: And the inhibition at 0.0062 µM ([1]; Mus musculus, T-lymphocyte, Compound I 6.2 nM, read-out: Percent of Inhibition)?
A: The inhibition at 0.0062 µM was 78%.

Q: And the inhibition at 0.0125 µM ([1]; Mus musculus, T-lymphocyte, Compound I 12.5 nM, read-out: Percent of Inhibition)?
A: The inhibition at 0.0125 µM was 91%.

Q: What about the inhibition at 0.025 µM ([1]; Mus musculus, T-lymphocyte, Compound I 25.0 nM, read-out: Percent of Inhibition) of the same compound?
A: The inhibition at 0.025 µM was 94%.

Q: And the inhibition at 0.05 µM ([1]; Mus musculus, T-lymphocyte, Compound I 50.0 nM, read-out: Percent of Inhibition)?
A: The inhibition at 0.05 µM was 94%.

Q: And the immunosuppressant activity ([1]; qualitative statement)?
A: The immunosuppressant activity was “positive inhibition of T-cell activation; also recorded: positive immunosuppressive activity”.

Q: For `C=CC[C@@H]1/C=C(\C)C[C@H](C)C[C@H](OC)[C@H]2O[C@@](O)(C(=O)C(=O)N3CCCC[C@H]3C(=O)O[C@H](/C(C)=C/[C@@H]3CC[C@@H](O)[C@H](OC)C3)[C@H](C)[C@@H](O)CC1=O)[C@H](C)C[C@@H]2OC` [FK-506], which “times more effective than cyclosporin” value [2] is on record?
A: The value was 100 times.
